Reference: patent US20080206198A1, “Compounds and methods for pharmico-gene therapy of epithelial sodium channel associated disorders” (priority 2003, published 2008)
“And” between values parts separate entries of the source, which are not always exact repeats. Equal entries are not always repeated. Peptide text beside a SMILES is read from it. * marks the point of attachment. Cbz = O=C(OCc1ccccc1)*

Assays:
mouse lung = assay: AV.LacZ gene transfer to mouse lung with Z-LLL (X-gal morphometry); assay type: in vivo
Method: In vivo studies in mice. Animal studies were performed in accordance with the institutional guidelines of the University of Iowa. To determine the effect of the proteasome inhibitor on AAV mediated gene transfer in mouse lung, 6 week-old BALB/c mice were lightly anesthetized using a methoxyflurane chamber. AV.LacZ (5×10^10 particles) was administered alone or with 400 μM Z-LLL in a 10 μl instillation by nasal aspiration as described by Walters et al. (2000). To prevent unforeseen toxicity of DMSO solvent, the proteasome inhibitor Z-LLL was dissolved in ethanol as a 40 mM stock solution and was included in the viral inoculum at 1% final concentration. Viral infection controls in the absence of Z-LLL also contained a 1% final concentration of ethanol. […] The trachea was incubated and instilled at 10 cm of water pressure with the following solutions in order: PBS, 0.5% glutaraldehyde, 1 mM MgCl2/PBS, and finally X-gal staining reagent for an overnight incubation at room temperature. The X-gal stained mouse lungs were then post fixed in 10% neutral buffered formalin for 48 hours at room temperature and cryopreserved in serial 10%, 20% and 30% sucrose/PBS solutions. Lungs (N=3 for each condition) were embedded in OCT (optimal cutting temperature; Baxter, Warrendale, Pa.) and 15 μm serially sections were analyzed for gene transfer by calculating the percentage of positive cells in the airway epithelium. The diameter of the airway was recorded for classification (>360 μm, 260-350 μm, 160-250 μm, <150 μm) of results following morphometric analysis. Greater than 150 airway cross-sections were quantified for each experimental condition.

liver = assay: rAAV transduction in liver with Z-LLL; assay type: in vivo, mouse; settings: 1 month post-infection
Method: Recombinant AV.LacZ (5×10^10 particles) was also administered to mouse liver either as virus alone in PBS, virus in combination with 40 μM Z-LLL in PBS, or virus in combination with 20 μM LLnL in PBS. Virus was directly instilled into portal vein of the C57B6 mice. AAV-mediated LacZ transgene expression was evaluated by histology staining at 2 and 4 weeks post infection in frozen tissue sections.

IB3-1 cells = assay: AAV2 FLAG-Luc transduction of IB3-1 cells; assay type: cell-based, human; settings: 20 to 80 μM
Excerpt: (§1) A. To screen for agents that enhance rAAV transduction, any number of cells can be used. A range of concentrations of the agent to be tested can be determined based on, for instance desirable profiles of the agent, desirable toxicity profiles of the agent and/or concentration of the agents employed in vivo. The usefulness of the cell type chosen for the screen can be confirmed by testing compounds, e.g., proteasome inhibitors such as LLnL and ZLL which are known to increase rAAV transduction. For example, a AAV2 FLAG-Luc vector was employed to transduce HeLa, ferret fibroblasts, IB3 and Huh (liver) cells in the presence or absence of the proteasome inhibitor MG132. MG132 was confirmed to enhance AAV transduction in all cell types tested: HeLa cell transduction was enhanced about 500-fold at 80 μM, and 200-fold at 40 μM, MG132; ferret fibroblast cell transduction was enhanced about 200-fold at 20 μM, and 17-fold at 4 μM, MG132; IB3-1 cell transduction was enhanced about 30 to 70-fold at 20 to 80 μM MG132; and Huh-7 cell transduction was enhanced about 15-fold at 20 to 80 μM MG132. There was no difference in rAAV transduction efficiency in HeLa cells when either DMSO or ETOH was used as a vehicle for MG132. B. HeLa cells were selected to screen for additional agents that enhance rAAV transduction, although any cell strain or line; or primary cells, may be employed. […]

Huh-7 cells = assay: AAV2 FLAG-Luc transduction of Huh-7 cells; assay type: cell-based; settings: 20 to 80 μM
Excerpt: as §1

ENaC = assay: Amiloride-sensitive Isc time course in polarized CuFi epithelia; assay type: cell-based, human; settings: 1 to 14 days
[1] = system: polarized human airway epithelial cultures; assay: AV2.RSVluc and AV2.RSVlucCap5 transduction of polarized human airway epithelial cultures; assay type: cell-based; settings: virus applied to the apical surface
Excerpt: To better understand serotype-specific differences in airway transduction, the effect of proteasome inhibitors on rAAV-2 and rAAV-5 transduction in polarized human airway epithelial cultures and mouse lung was examined (FIGS. 2 and 6).

Solubility in ethanol = assay type: physicochemical
[2] = 400 μM Z-LLL intranasal, 150 days

CC(C)C[C@@H](C=O)NC(=O)[C@H](CC(C)C)NC(=O)[C@H](CC(C)C)NC(=O)OCc1ccccc1 [Z-LLL, N-carbobenzoxyl-L-leucinyl-L-leucinyl-L-leucinal] (Cbz-Leu-Leu-Leu-aldehyde)
airway cells transduced by AV.LacZ, average (mouse lung; [2]): about 5.88%
airways cells in the smaller bronchioles (<150 mm) expressing β-galactosidase (mouse lung; [2]): 1.37±0.41%
range of transgene expression in distal airways (mouse lung; [2]): 0 to 4%
range of transgene expression in proximal airways (mouse lung; [2]): 5 to 18%
transduction efficiency in larger bronchioles (>350 mm), mean % of the airway epithelium (mouse lung; [2]): 10.36±1.63% and 10.36+/−1.63%
transgene expression by X-gal staining (mouse lung; 3 and 10 days post infection): no detectable transgene expression
increase in rAAV transduction in the liver (liver): 7 fold
enhancement of IB3-1 cell transduction (IB3-1 cells): 30 to 70 fold
enhancement of Huh-7 cell transduction (Huh-7 cells): about 15 fold

COc1cccc2c1C(=O)c1c(O)c3c(c(O)c1C2=O)C[C@@](O)(C(=O)CO)C[C@@H]3O[C@H]1C[C@H](N)[C@H](O)[C@H](C)O1 [doxorubicin]
ENaC Isc time course (ENaC): gradual decline in ENaC Isc

N-acetyl-L-leucinyl-L-leucinal-L-norleucinal [LLnL]
increase in AV2.RSVlucCap5 transduction [1]: 12 fold
solubility in ethanol (Solubility in ethanol): poor solubility
